Measurements published in the NIST ThermoML archive (doi:10.1021/je500116z).
Numbers after ± are expanded uncertainties.

Settings: Liquid, Ebulliometric method (Recirculating still)

SMILES	vapor or sublimation pressure (288.15 K) [kPa]	vapor or sublimation pressure (298.15 K) [kPa]	vapor or sublimation pressure (308.15 K) [kPa]
CC(C)CCl [1-chloro-2-methylpropane]	13 ± 0.097	20.35 ± 0.13	30.45 ± 0.17
CC(C)(C)Cl [2-chloro-2-methylpropane]	26.42 ± 0.16	40.13 ± 0.22	59.52 ± 0.3
CCC(C)Cl (configuration not stated) [2-chlorobutane]	13.36 ± 0.099	20.91 ± 0.13	31.55 ± 0.18
CCCCCC [hexane]	12.89 ± 0.097	20.22 ± 0.13	30.7 ± 0.17
